Measured values from patent US10921327B2, “Probes for quantitative imaging of thiols in various environments” (Baylor College of Medicine, priority 2014, dated 2021).
Entries after “also recorded” stand apart in the source; their conditions may differ. Counter-ions that a name gives are not always drawn. Marks after values point to notes of the source that are not given here. Values belong to the molecule of their own block, whether it stands above or below them.

What was measured:
[1] = Equilibrium (dissociation constant) of probe and GSH reaction, UV-Vis/fluorescence; type: binding; conditions: reaction with various concentration of GSH in water/PBS pH 7.4; based on UV-Vis; read-out: Kd′ observed (apparent) dissociation constant
Description: Applicants also determined Keq between TQ Green and GSH and the relationship of the ratiometric change as a function of GSH concentration. Kd′ is the apparent dissociation constant for the reaction between TQ Green and GSH. The following equation can be derived:
Plotting (R−Rmin)/(Rmax−R) as a function of GSH concentration afforded a superb linear relationship with r^2=0.999 (FIGS. 6-7).
TQ Green was dissolved in PBS buffer (10 mM, pH 7.4) containing 1% DMSO with concentration at 32 μM. GSH was dissolved in the same PBS buffer with concentration from 0-80 mM. Above solutions were mixed at 1:1 ratio. All solutions were protected with nitrogen and stored in glove box to prevent any oxygen entering the solution. Samples of all solutions were taken out at 1, 18, 72, and 144 hours after mixing. UV-Vis and fluorescence were measured for all solutions.
(§1) Compounds 3b-d were dissolved in DMSO (10 mM) and 1 eq of 2 M β-mercaptoethanol (BME) was added. Compounds 3a and TQ Green were dissolved in PBS buffer (10 mM, pH 7.4) with 1% DMSO. GSH solution was added to reach a final concentration of 80 mM with compound 3a at 10 μM and TQ Green at 16 μM, respectively. All solutions were then monitored continuously with UV-Vis and fluorimeter for 2 hours (Table 1).

Solubility = type: physicochemical; conditions: for solubility: PBS buffer, aqueous buffer
[2] = UV-Vis absorption, fluorescence and quantum yield; type: physicochemical; conditions: for Quantum Yield (PBS): λex = 479 nm (TQ Green), 406 nm (TQ Green-GSH)
Source text: TQ Green absorbs at 479 nm and fluoresces at 590 nm (λex=488 nm, FIG. 3). The extinction coefficients of TQ Green and TQ Green-GSH at their maximum absorption wavelengths are (2.3±0.2)×10^4 M^−1·cm^−1 (a, =479 nm, Table 2) and (1.6±0.2)×10^4 M^−1·cm^−1 (λmax=407 nm, Table 1), respectively. Upon reacting with GSH, the Abs and Fl peaks shift hypsochromically to 406 and 463 nm (λex=405 nm), respectively. The Abs of TQ Green and TQ Green-GSH (the adduct between TQ Green and GSH) are close to 488 and 405 nm, respectively, which are two commonly used laser wavelengths for confocal microscopes. […]
NMR spectra were recorded on a Varian NMR (^1H at 400 MHz) spectrometer. Chemical shifts (δ) were given in ppm with reference to solvent signals [^1H NMR: CDCl3 (7.26), CD3OD (3.31)]. UV-Vis measurements were performed with 2×10 mm quartz cuvette in Cary 60 UV-is Spectrometer. Fluorescence measurements were performed with the same quartz cuvette in Cary Eclipse Fluorescence Spectrophotometer with an excitation slit of 5 nm, an emission slit of 10 nm and PMT at 650 V. Flash chromatography was performed on a Teledyne ISCO CombiFlashRf200. Olympus FV1000 laser scanning confocal microscope system was used for cell imaging. ESI mass spectrometry was measured on a BrukerMS microTOF ESI, at the Shared Equipment Authority at Rice University. Flow cytometry was performed on BD LSR II Flow Cytometer at BCM core facilities.
As summarized in Table 5, quantum yields of synthesized GSH probes and a GSH adduct with Rhodamine 123 as the standard were analyzed. Quantum yields were determined using a comparative method described previously. The bromine atom on the phenyl ring potentially enhances the push-pull effect of the coumarin-based fluorophore, thus increases the quantum yield.

[3] = Reaction kinetics and reversibility of probe with GSH (UV-Vis); conditions: 10 mM GSH in PBS, room temperature; TQ Green 16 μM, probe 3a 10 μM
Description: The reaction between TQ Green and GSH is reversible.
The second-order rate constant between TQ Green and GSH is 0.150±0.001M^−1·s^−1. There were no appreciable Abs changes observed after 20 minutes. Following a pause for another 80 minutes to ensure that the equilibrium between TQ Green and GSH was fully established, Applicants added two equivalents of an irreversible Michael acceptor (5,6-dihydro-2H-pyran-2-one) to deplete all the GSH in solution (FIG. 4A).
GSH in PBS was added to a solution of TQ Green in PBS buffer (10 mM, pH 7.4) containing 1% DMSO. The final concentrations of GSH and TQ Green were 10 mM and 16 μM, respectively. The solutions were then monitored continuously with UV-Vis spectrometer (FIGS. 21A-D).

[4] = Reactivity of probes against β-mercaptoethanol in DMSO; type: binding
Description: as §1

PANC-1 cells = experiment: GSH level changes in PANC-1 cells upon DEM treatment (TQ Green live imaging); type: cell-based
Description: PANC-1 cells were treated with diethyl maleate (50 μM) for 24 hours and 2 hours to inhibit and stimulate GSH levels, respectively. All the cells were imaged 24 hours after starting the experiment. Results are statistical analyses of more than 25 cells. P values shown are based on unpaired student t-tests. Error bars represent standard deviations.
Applicants also treated PANC-1 cells with DEM for a very short time to stimulate the uptake of cysteine, thus increasing the GSH levels. After removal of DEM, the cells were further incubated under normal conditions for an additional 22 hours before imaging. […] Importantly, the GSH level obtained in DEM non-treated cells after 24 hours was essentially the same as the value measured at time zero (P=0.63), indicating excellent reproducibility of live imaging based GSH quantification.
PANC-1 cells were incubated with DEM (50 μM) for 2 hours for stimulation of cysteine uptake. After replacing with fresh medium, cells were cultured at normal conditions for another 22 hours. A separate dish of PANC-1 cells were incubated with DEM (50 μM) as an inhibitor for 24 hours. […] GSH concentrations were calculated based on the calibration curve. FACS was performed from harvested cells after treatment, fluorescent intensities were recorded with 405 nm laser/420-460 nm filter (pacific blue channel), and 488 nm laser/515-545 nm filter (FITC channel). […]

[5] = 10 mM solution, capped tube, 10 hour time period, HPLC 254 nm
Description: A GSH solution (10 mM) was placed in a capped Eppendorf tube. Samples of solution were taken out for HPLC measurement every two hours. […] The percentage was calculated from the HPLC peak area monitored at 254 nm.

[6] = methanol; cited from earlier work
[7] = Hydrolysis of TQ Green-AM in PBS and diluted HeLa cell lysate (HPLC UV-vis/MS); type: in vitro ADME; conditions: 40 μM, 37° C.
Description: In order to allow TQ Green to efficiently penetrate into cells for GSH measurements, Applicants converted the carboxylic acid group to an acetoxymethyl (AM) ester (FIG. 10). Once inside cells, the AM ester will be readily hydrolyzed by esterases to regenerate TQ Green. To verify this, Applicants incubated TQ Green-AM (FIG. 11, 40 μM) in PBS for 2 hours and in a 500 times diluted HeLa cell lysate for 10 hours at 37° C. (Note: the dilution factor for the cell lysate is calculated based on the fact that ˜400,000 of HeLa cells, which have a total volume of ˜2 μL, were lysed in 1 mL of lysis buffer, resulting in 500 times dilution of cellular components, Table 3). A mixture of TQ Green and TQ Green-AM standard samples and the reaction mixtures after incubation in PBS and in cell lysate were separated using high performance liquid chromatography (HPLC) with a tandem of UV-vis and mass spectrometer (MS) detectors.
TQ Green-AM (40 μM) was incubated in PBS for 2 hours and in a 500 times diluted HeLa cell lysate for 10 hours at 37° C. The reaction products were analyzed by HPLC with a tandem of UV-vis and MS detectors. Analytical standards TQ Green and TQ Green-AM (red trace C) were used to determine the retention time of the corresponding compounds. […] Under the elution conditions used, TQ Green and TQ Green-GSH cannot be separated. However, their identities were confirmed by MS. […]

cells = experiment: Confocal imaging of probe interacting with cells (cell penetration); type: cell-based
Description: FIG. 10 provides confocal images at 488 nm channel of TQ Green (acid form, FIG. 10A), and TQ Green-AM (ester form, FIG. 10B) interacting with cells.
All cell lines used in this study were purchased from American Type Culture Collection (ATCC) and grown in DMEM (Gibco, 11965) media supplemented with 10% FBS and 1% 1003 Pen Strep (Gibco). Cells were cultured under a controlled atmosphere (37° C., 5% CO2). Glass dishes were used for cell culture due to confocal scanning requirements. Cells were treated with TQ Green-AM (20 nM-1 μM with 0.0025-1% DMSO in PBS) for 30 minutes, followed by two washing steps with tryptan blue and PBS prior to imaging. Fluorescent images were acquired with 405 nm laser/430-470 nm filter and 488 nm laser/575-620 nm filter. All the microscope settings were kept consistent in each experiment.

[8] = Log D in octanol-PBS (pH 7.4) biphasic system; type: physicochemical; conditions: pH 7.4, read-out: Log D, estimated value based on HPLC result
Source text: To further understand TQ Green distribution between hydrophobic and hydrophilic environments, Applicants measured the Log D values of TQ Green and TQ Green-GSH using an octanol-PBS (pH 7.4) biphasic system (Table 2). […] In addition, Applicants discovered that the absorbance maximum of TQ Green shifts from 480 nm to 455 nm when changing the solvents from PBS to octanol. Applicants hypothesize that if TQ Green is distributed in lipid membranes, the absorbance maximum and fluorescence intensity will change. […] Consistent with the Log D measurements, this experiment also supports the hypothesis that TQ Green accumulates in lipid membranes. Considering the high quantum yield of TQ Green in hydrophobic solvents, lipid enrichment of TQ Green seemingly complicates intracellular GSH quantification. […] However, the Kd′ values may be different under calibration conditions and inside cells, which may introduce a systemic error.

[9] = cited from earlier work

Compound: CCOC(=O)/C=C\C(=O)OCC [DEM, diethyl maleate]
Increase in GSH levels (PANC-1 cells; 50 μM for 2 hours, then 22 hours normal conditions (stimulation)): 28%
Decrease in GSH levels (PANC-1 cells; 50 μM for 24 hours (inhibition)): 27%

Compound: N[C@@H](CCC(=O)N[C@@H](CS)C(=O)NCC(=O)O)C(=O)O [GSH, glutathione]
Solubility in octanol (Solubility): not soluble
GSH oxidized in air [5]: About 20%

Compound: COC(=O)c1ccccc1-c1c2ccc(=N)cc-2oc2cc(N)ccc12.Cl [Rhodamine 123]
Quantum Yield, used as standard [6]: 0.94*

Compound: CCN(CC)c1ccc2cc(/C=C/C(=O)c3ccc(C(=O)OCOC(C)=O)cc3Br)c(=O)oc2c1 [TQ Green-AM]
Hydrolysis in diluted cell lysate ([7]; 500 times diluted HeLa cell lysate, 10 hours): completely converted to a mixture of TQ Green and TQ Green-GSH adduct; also recorded: completely hydrolyzed
Hydrolysis in PBS ([7]; PBS, 2 hours): resistant to hydrolysis; also recorded: did not show appreciable hydrolysis
Cell penetration (confocal, 488 nm channel) (cells): able to penetrate through cell the membrane

Compound: CCN(CC)c1ccc2cc(C(CC(=O)c3ccc(C(=O)O)cc3Br)SCC(NC(=O)CCC(N)C(=O)O)C(=O)NCC(=O)O)c(=O)oc2c1 (stereo not shown) [TQ Green-GSH]
Solubility in methanol (Solubility; methanol): ^aTQ Green-GSH is not soluble in methanol
Solubility in octanol (Solubility): not soluble
Abs Max Wavelength ([2]; PBS pH 7.4): 406 nm
Fl Emission Max Wavelength ([2]; PBS pH 7.4, λex = 488 nm (TQ Green), λex = 405 nm (TQ Green-GSH)): 463 nm
Quantum Yield (PBS) [2]: 0.0059±0.0003
Quantum Yield (PBS) ([2]; listed as drawing 20): 0.0059 ± 0.0003
logD [8]: < -1

Compound: FC(F)(F)c1ccc(S)cc1 [p-trifluorobenzenethiol]
pKa [9]: 5.5

Continued, in another order:

Kd [1]: 1500 µM
solubility (Solubility): > 500 µM
Quantum Yield (Methanol) ([2]; methanol, Rhodamine 123 as standard): 0.062 ± 0.002
Compound: CCN(CC)c1ccc2cc(/C=C/C(=O)c3ccc(C(=O)O)cc3)c(=O)oc2c1 [Compound 3a]
Time to reach 95% of conversion [3]: ~6 min

solubility (Solubility): < 10 µM
Compound: CCN(CC)c1ccc2cc(/C=C/C(=O)c3ccccc3)c(=O)oc2c1 [Compound 3b]

solubility (Solubility): < 10 µM
Compound: CCN(CC)c1ccc2cc(/C=C(\C)C(=O)c3ccccc3)c(=O)oc2c1 [Compound 3c]
Michael addition between thiol and probe [4]: significantly blocks the Michael addition

Kd ([4]; β-mercaptoethanol in DMSO, read-out: Kd′ observed dissociation constant): ~2000 µM
solubility (Solubility): < 10 µM
Compound: CCN(CC)c1ccc2cc(/C=C/C(=O)c3ccccc3O)c(=O)oc2c1 [Compound 3d]
